Here are results for 16 compounds from patent US6762170B1, “2-(purin-9-yl)-tetrahydrofuran-3,4-diol derivatives” (SmithKlineBeecham Corporation, priority 1998, dated 2004).

Counter-ions that a name gives are not always drawn. Where only a bound is given, the exact number is not on record here.

Holding throughout (format): cell-based
Assay [1] concerns the target T1, Adenosine 3 receptor (Homo sapiens, UniProt P0DMS8).
T1 construct: expressed in transfected cells; host or cells: Chinese hamster ovary (CHO) cells, co-transfected with a CRE-SPAP reporter
T1 sequence (P0DMS8 1-318): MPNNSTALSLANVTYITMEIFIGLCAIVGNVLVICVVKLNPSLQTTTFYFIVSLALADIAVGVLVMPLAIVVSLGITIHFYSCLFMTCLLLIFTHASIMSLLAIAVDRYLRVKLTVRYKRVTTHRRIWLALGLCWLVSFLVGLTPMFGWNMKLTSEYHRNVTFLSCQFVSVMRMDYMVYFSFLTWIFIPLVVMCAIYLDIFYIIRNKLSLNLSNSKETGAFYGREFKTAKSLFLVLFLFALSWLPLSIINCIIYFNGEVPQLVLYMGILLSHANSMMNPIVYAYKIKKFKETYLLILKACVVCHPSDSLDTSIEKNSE
Nature of the assay: Agonist activity against adenosine 3 receptor subtype (CHO cells, forskolin-enhanced cAMP, SPAP reporter). The following applies: EC50 ratio to NECA; transfected CHO cells, forskolin-enhanced cAMP reflected by SPAP. As to the method:
(§1) (1) Agonist Activity Against Adenosine 2a, Adenosine 1 and Adenosine 3 Receptor Subtypes.
(§2) Agonist selectivity of compounds against other human adenosine receptors is determined using Chinese hamster ovary (CHO) cells transfected with the gene for the relevant human adenosine receptor following a method based on that of Castanon and Spevak, 1994. The CHO cells are also transfected with cyclic AMP response elements promoting the gene for secreted placental alkaline phosphatase (SPAP) (Wood, 1995). The effect of test compounds may be determined by their effects on basal levels of cAMP (A2a) or on forskolin-enhanced cAMP (A1 and A3) as reflected by changes in levels of SPAP. EC50 values for compounds may then be determined as a ratio to that of the non-selective agonist N-ethyl carboxamide adenosine (NECA).
(§3) Values given in the Table are EC50 values as a ratio of that of NECA.

Assay [2] concerns the target T2, Adenosine 1 receptor (Homo sapiens, UniProt P30542).
T2 construct: expressed in transfected cells; host or cells: Chinese hamster ovary (CHO) cells, co-transfected with a CRE-SPAP reporter
T2 sequence (P30542 1-326): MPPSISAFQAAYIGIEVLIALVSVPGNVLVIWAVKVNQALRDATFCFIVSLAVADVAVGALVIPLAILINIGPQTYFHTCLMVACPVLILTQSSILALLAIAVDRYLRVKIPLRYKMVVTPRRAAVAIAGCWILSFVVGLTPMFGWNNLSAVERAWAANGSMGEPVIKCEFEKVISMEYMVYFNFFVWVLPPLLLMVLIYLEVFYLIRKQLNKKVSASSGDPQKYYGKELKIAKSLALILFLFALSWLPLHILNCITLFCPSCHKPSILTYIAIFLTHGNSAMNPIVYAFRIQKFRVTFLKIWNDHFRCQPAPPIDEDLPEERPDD
Nature of the assay: Agonist activity against adenosine 1 receptor subtype (CHO cells, forskolin-enhanced cAMP, SPAP reporter). The following applies: EC50 ratio to NECA; transfected CHO cells, forskolin-enhanced cAMP reflected by SPAP. The procedure: as §1, §2, §3

Assay [3] concerns the target T3, Adenosine 2a receptor (Homo sapiens, UniProt P29274).
T3 construct: expressed in transfected cells; host or cells: Chinese hamster ovary (CHO) cells, co-transfected with a CRE-SPAP reporter
Nature of the assay: Agonist activity against adenosine 2a receptor subtype (CHO cells, cAMP response element/SPAP reporter). As to conditions: EC50 ratio to NECA; transfected CHO cells, basal cAMP reflected by SPAP. The procedure: as §1, §2, §3

T3 sequence (P29274 whole entry): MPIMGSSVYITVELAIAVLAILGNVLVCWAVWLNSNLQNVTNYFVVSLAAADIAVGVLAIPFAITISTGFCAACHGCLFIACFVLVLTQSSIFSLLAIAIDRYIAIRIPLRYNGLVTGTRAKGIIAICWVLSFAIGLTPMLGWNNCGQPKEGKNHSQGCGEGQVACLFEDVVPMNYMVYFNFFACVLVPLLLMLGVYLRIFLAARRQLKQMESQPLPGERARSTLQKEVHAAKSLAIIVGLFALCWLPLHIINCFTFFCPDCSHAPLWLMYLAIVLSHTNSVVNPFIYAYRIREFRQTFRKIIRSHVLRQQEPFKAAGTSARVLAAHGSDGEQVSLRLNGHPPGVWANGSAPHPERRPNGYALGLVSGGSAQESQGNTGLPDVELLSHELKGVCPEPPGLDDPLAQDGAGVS

Consider `CCc1cc([C@H]2O[C@@H](n3cnc4c(NC5CCOCC5)nc(NCCN5CCCCC5)nc43)[C@H](O)[C@@H]2O)on1.O=CO.O=CO` [Example 14, (2S,3S,4R,5R)-2-(3-Ethyl-isoxazol-5-yl)-5-[2-(2-piperidin-1-yl-ethylamino)-6-(tetrahydro-pyran-4-ylamino)-purin-9-yl]-tetrahydro-furan-3,4-diol diformate], for which the “A3 (EC50 values as a ratio of that of NECA)” value in assay [1] is given as more than 254. Moreover, the “A1 (EC50 values as a ratio of that of NECA)” value in assay [2] was found to be 77.1. Further, the “A2a (EC50 values as a ratio of that of NECA)” value in assay [3] came out at 4.99.

On to `CCc1cc(C2OC(n3cnc4c(NCc5cccc(I)c5)nc(NCCc5cn(C)cn5)nc43)C(O)C2O)on1.O=CO.O=CO` [Example 20, (2S,3S,4R,5R)-2-(3-Ethyl-isoxazol-5-yl)-5-{6-(3-iodo-benzylamino)-2-[2-(1-methyl-1H-imidazol-4-yl)-ethylamino]-purin-9-yl}-tetrahydro-furan-3,4-diol diformate], for which the “A3 (EC50 values as a ratio of that of NECA)” value in assay [1] is given as more than 267. Moreover, the “A1 (EC50 values as a ratio of that of NECA)” value in assay [2] came out at 310.9. For the same compound, the “A2a (EC50 values as a ratio of that of NECA)” value in assay [3] was determined as 2.04.

Take `CCc1cc([C@@H]2O[C@H](n3cnc4c(NC5CCSCC5)nc(NCCc5ccccn5)nc43)[C@@H](O)[C@H]2O)on1.O=CO.O=CO` [Example 30, (2R,3R,4S,5S)-2-(3Ethyl-isoxazol-5-yl)-5-[2-(2-pyridin-2-yl-ethylamino)-6-(tetrahydro-thiopyran-4-ylamino)-purin-9-yl]-tetrahydro-furan-3,4-diol diformate]: the “A3 (EC50 values as a ratio of that of NECA)” value in assay [1] is on record as more than 257. Also, the “A1 (EC50 values as a ratio of that of NECA)” value in assay [2] is 108.8. Moreover, in assay [3], the “A2a (EC50 values as a ratio of that of NECA)” value came out at 4.58.

On to `CCc1cc([C@H]2O[C@@H](n3cnc4c(NCCC(C)(C)C)nc(NCCc5cn(C)cn5)nc43)[C@H](O)[C@@H]2O)on1.O=CO.O=CO` [Example 7, (2R,3R,4S,5S)-2-{6-(3,3-Dimethyl-butylamino)-2-[2-(1-methyl-1H-imidazol-4-yl)-ethylamino]-purin-9-yl}-5-(3-ethyl-isoxazol-5-yl)-tetrahydro-furan-3,4-diol diformate], for which the “A3 (EC50 values as a ratio of that of NECA)” value in assay [1] is more than 312. In addition, the “A1 (EC50 values as a ratio of that of NECA)” value in assay [2] was “>=309.4”. Besides, in assay [3], the “A2a (EC50 values as a ratio of that of NECA)” value worked out at 0.35.

In the case of `CCc1cc(C2OC(n3cnc4c(NC(CO)Cc5ccccc5)nc(NCCN5CCCCC5)nc43)C(O)C2O)on1` [Example 45, (2S,3S,4R,5R)-2-(3-Ethyl-isoxazol-5-yl)-5-[6-(1S-hydroxymethyl-2-phenyl-ethylamino)-2-(2-piperidin-1-yl-ethylamino)-purin-9-yl]-tetrahydro-furan-3,4-diol diformate], the “A3 (EC50 values as a ratio of that of NECA)” value in assay [1] is more than 189. Further, the “A1 (EC50 values as a ratio of that of NECA)” value in assay [2] is on record as 54.04. The “A2a (EC50 values as a ratio of that of NECA)” value in assay [3] amounted to 1.93.

On to “(2S,3S,4R,5R)-2-(3-Ethyl-isoxazol-5yl)-5-[6-(3-iodo-benzylamino)-2-(2-piperidin-1-yl-ethylamino)-purin-9-yl]-tetrahydro-furan-3,4-diol diformate [Example 65]”, for which the “A3 (EC50 values as a ratio of that of NECA)” value in assay [1] is more than 262. The “A1 (EC50 values as a ratio of that of NECA)” value in assay [2] is given as 128.27. Moreover, the “A2a (EC50 values as a ratio of that of NECA)” value in assay [3] is on record as 4.74.

Consider “(2R,3R,4S,5S)-2-[2-Ethylamino-6-(3-iodo-benzylamino)-purin-9-yl]-5-(3-ethyl-isoxazol-5-yl)-tetrahydro-furan-3,4-diol formate [Example 66]”, for which the “A3 (EC50 values as a ratio of that of NECA)” value in assay [1] was more than 262. The “A1 (EC50 values as a ratio of that of NECA)” value in assay [2] stood at 189.98. Besides, in assay [3], the “A2a (EC50 values as a ratio of that of NECA)” value is listed as 8.32.

`CCc1cc(C2OC(n3cnc4c(NC(CC)CC)nc(NC(CO)Cc5ccccc5)nc43)C(O)C2O)on1` [Example 35, (2S,3S,4R,5R)-2-(3-Ethyl-4-isoxazol-5-yl)-5-[6-(1-ethyl-propylamino)-2-(1S-hydroxymethyl-2-phenyl-ethylamino)-purin-9-yl]-tetrahydro-furan-3,4-diol formate]: in assay [1], the “A3 (EC50 values as a ratio of that of NECA)” value is recorded as more than 223. Moreover, the “A1 (EC50 values as a ratio of that of NECA)” value in assay [2] came out at 89.16. In addition, in assay [3], the “A2a (EC50 values as a ratio of that of NECA)” value is on record as 2.53.

Turning to `CCc1cc([C@H]2O[C@@H](n3cnc4c(NC5CCOCC5)nc(NCCc5ccccn5)nc43)[C@H](O)[C@@H]2O)on1.O=CO.O=CO` [Example 13, (2S,3S,4R,5R)-2-(3-Ethyl-isoxazol-5-yl)-5-[2-(2-pyridin-2-yl-ethylamino)-6-(tetrahydro-pyran-4-ylamino)-purin-9-yl]-tetrahydro-furan-3,4-diol diformate], in assay [1], the “A3 (EC50 values as a ratio of that of NECA)” value was more than 146. For the same compound, the “A1 (EC50 values as a ratio of that of NECA)” value in assay [2] was 61.9. The “A2a (EC50 values as a ratio of that of NECA)” value in assay [3] was 3.03.

On to “(2R,3R,4S,5S)-2-{6-(1-Ethyl-propylamino)-2-[2-(1-methyl-1H-imidazol-4-yl)-ethylamino]-purin-9yl}-5-(3-methyl-isoxazol-5-yl)-tetrahydro-furan-3,4-diol diformate [Example 59]”, for which the “A3 (EC50 values as a ratio of that of NECA)” value in assay [1] was more than 385. Further, the “A1 (EC50 values as a ratio of that of NECA)” value in assay [2] came out at 194.3. Moreover, the “A2a (EC50 values as a ratio of that of NECA)” value in assay [3] is reported as 0.13.

For `CCc1cc(C2OC(n3cnc4c(NC5CCS(=O)(=O)CC5)nc(NCCNC(=N)N)nc43)C(O)C2O)on1` (stereo not drawn) [Example 26, N-(2-{6-(1,1-Dioxo-hexahydro-1λ6-thiopyran-4-ylamino)-9-[5S-(3-ethyl-isoxazol-5-yl)-3R ,4S-dihydroxy-tetrahydro-furan-2R-yl]-9H-purin-2-ylamino}-ethyl)-guanidine diformate], the “A3 (EC50 values as a ratio of that of NECA)” value in assay [1] is recorded as more than 286. Further, the “A1 (EC50 values as a ratio of that of NECA)” value in assay [2] was 273.3. The “A2a (EC50 values as a ratio of that of NECA)” value in assay [3] stood at 6.89.

In the case of `CCc1cc([C@H]2O[C@@H](n3cnc4c(NCC(c5ccccc5)c5ccccc5)nc(NCCNc5ccccn5)nc43)[C@H](O)[C@@H]2O)on1.O=CO.O=CO` [Example 16, (2R,3R,4S,5S)-2-{6-(2,2-Diphenyl-ethylamino)-2-[2-(pyridin-2-ylamino)-ethylamino]-purin-9-yl}-5-(3-ethyl-isoxazol-5-yl)-tetrahydro-furan-3,4-diol diformate], the “A3 (EC50 values as a ratio of that of NECA)” value in assay [1] is more than 1004. Besides, the “A1 (EC50 values as a ratio of that of NECA)” value in assay [2] was found to be 442. For the same compound, in assay [3], the “A2a (EC50 values as a ratio of that of NECA)” value is given as 0.35.

In the case of `CCc1cc(C2OC(n3cnc4c(NCc5ccccc5)nc(NCCc5ccccn5)nc43)C(O)C2O)on1.O=CO.O=CO` [Example 52, (2S,3S,4R,5R)-2-(3-Ethyl-isoxazol-5-yl)-5-[6-benzylamino-2-(2-pyridin-2-yl-ethylamino)-purin-yl]-tetrahydro-furan-3,4-diol diformate], the “A3 (EC50 values as a ratio of that of NECA)” value in assay [1] is listed as more than 340. Moreover, the “A1 (EC50 values as a ratio of that of NECA)” value in assay [2] is listed as 1359.98. Further, the “A2a (EC50 values as a ratio of that of NECA)” value in assay [3] is 21.63.

Take `CCc1cc(C2OC(n3cnc4c(NC(CC)CC)nc(NCCN5CCOCC5)nc43)C(O)C2O)on1.O=CO.O=CO` [Example 38, (2S,3S,4R,5R)-2-(3Ethyl-isoxazol-5-yl)-5-[6(1-ethyl-propylamino)-2-(2-morpholin-4-yl-ethylamino)-purin-9-yl]-tetrahydro-furan-3,4-diol diformate]: in assay [1], the “A3 (EC50 values as a ratio of that of NECA)” value is recorded as more than 737. The “A1 (EC50 values as a ratio of that of NECA)” value in assay [2] is given as 44.1. Moreover, the “A2a (EC50 values as a ratio of that of NECA)” value in assay [3] is recorded as 5.29.

Regarding `CCc1cc(C2OC(n3cnc4c(NC(CO)Cc5ccccc5)nc(NCCNc5ccccn5)nc43)C(O)C2O)on1` [Example 62, (2S,3S,4R,5R)-2-(3-Ethyl-isoxazol-5-yl)-5-{6-(1S-hydroxymethyl-2-phenyl-ethylamino)-2-[2-(pyridin-2-ylamino)-ethylamino]-purin-9-yl}-tetrahydro-furan-3,4-diol diformate], the “A3 (EC50 values as a ratio of that of NECA)” value in assay [1] is listed as more than 303. In assay [2], the “A1 (EC50 values as a ratio of that of NECA)” value is 21.37. For the same compound, in assay [3], the “A2a (EC50 values as a ratio of that of NECA)” value turned out to be 1.03.

On to `CCc1cc(C2OC(n3cnc4c(NCCC(C)(C)C)nc(NCCN5CCOCC5)nc43)C(O)C2O)on1` [Example 42, (2R,3R,4S,5S)-2-[6-(3,3-Dimethyl-butylamino)-2-(2-morpholin-4-ethylamino)-purin-9-yl]-5-(3-ethyl-isoxazol-5-yl)-tetrahydro-furan-3,4-diol diformate]], for which the “A3 (EC50 values as a ratio of that of NECA)” value in assay [1] is on record as more than 395. Also, the “A1 (EC50 values as a ratio of that of NECA)” value in assay [2] turned out to be 1369.08. In addition, in assay [3], the “A2a (EC50 values as a ratio of that of NECA)” value amounted to 41.06.
